{
  "source": "ChEMBL document CHEMBL4808207",
  "about": "“Macrocyclic Peptides as a Novel Class of NNMT Inhibitors: A SAR Study Aimed at Inhibitory Activity in the Cell” (ACS Med Chem Lett, 2021)",
  "note": "Numbered stars: 1 amine (or outer) side, 2 acyl side, 3 side chain; on linkers, the order of the positions; unused ones are H or OH. Bridge positions count the residues as written; N and C are the ends. Square brackets hold non-standard residues; d marks the D form. Peptide text beside a SMILES is read from it. Pro(trans-4-Ph) = O=C(O)[C@@H]1C[C@@H](c2ccccc2)CN1; Pro(cis-4-CF3) = O=C(O)[C@@H]1C[C@H](C(F)(F)F)CN1; X1 = O=C([C@@H]1C[C@@H](C(F)(F)F)CN1[*:1])[*:2]; Phe(4-CONH2) = NC(=O)c1ccc(C[C@H](N)C(=O)O)cc1; Bip = N[C@@H](Cc1ccc(-c2ccccc2)cc1)C(=O)O; Pro(4,4-F2) = O=C(O)[C@@H]1CC(F)(F)CN1; Lys(Me2) = CN(C)CCCC[C@H](N)C(=O)O; NMeR = CN[C@@H](CCCNC(=N)N)C(=O)O; NMeF = CN[C@@H](Cc1ccccc1)C(=O)O; tBuAla = CC(C)(C)C[C@H](N)C(=O)O; Tic = O=C(O)[C@@H]1Cc2ccccc2CN1; hLys = NCCCCC[C@H](N)C(=O)O; NMeC = CN[C@@H](CS)C(=O)O",
  "data": [
    {"biological_target": "T1, Nicotinamide N-methyltransferase (Mus musculus, UniProt O55239)", "T1 sequence (O55239 whole entry)": "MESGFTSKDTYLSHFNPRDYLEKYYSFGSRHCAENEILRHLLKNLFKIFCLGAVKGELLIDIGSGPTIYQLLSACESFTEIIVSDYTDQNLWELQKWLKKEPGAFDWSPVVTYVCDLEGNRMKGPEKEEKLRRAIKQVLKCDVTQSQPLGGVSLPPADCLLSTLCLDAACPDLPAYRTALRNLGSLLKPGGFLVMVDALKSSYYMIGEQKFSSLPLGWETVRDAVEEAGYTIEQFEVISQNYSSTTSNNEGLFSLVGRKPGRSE", "assay": "Inhibition of mouse recombinant NNMT using nicotinamide and SAM as substrate assessed as reduction in 1-methyl-nicotinamide formation incubated for 22 to 24 hrs by RapidFire Mass spectroscopy", "units": {"IC50": "µM"}, "values": [
      {"smiles": "CC(C)C[C@@H]1NC(=O)[C@@H]2CCCN2C(=O)[C@H](Cc2ccccc2)NC(=O)CSC[C@@H](C(N)=O)NC(=O)[C@H](Cc2ccc(-c3ccccc3)cc2)NC(=O)[C@@H]2Cc3ccccc3CN2C(=O)[C@@H]2CCCN2C(=O)[C@H](CCCCN)NC1=O", "note": "({CH2CO}-FPLKP[Tic][Bip]C-NH2; thioether N-8)", "IC50": 0.073},
      {"smiles": "CC(C)C[C@@H]1NC(=O)[C@@H]2CCCN2C(=O)[C@H](Cc2ccccc2)NC(=O)CSC[C@@H](C(N)=O)NC(=O)[C@H](Cc2ccc(C(N)=O)cc2)NC(=O)[C@@H]2Cc3ccccc3CN2C(=O)[C@@H]2CCCN2C(=O)[C@H](CCCCN)NC1=O", "note": "({CH2CO}-FPLKP[Tic][Phe(4-CONH2)]C-NH2; thioether N-8)", "IC50": 0.04},
      {"smiles": "CC(C)C[C@@H]1NC(=O)[C@@H]2CCCN2C(=O)[C@H](Cc2ccccc2)NC(=O)CSC[C@@H](C(N)=O)NC(=O)[C@H](Cc2ccc(C(N)=O)cc2)NC(=O)[C@@H]2Cc3ccccc3CN2C(=O)[C@@H]2CC(F)(F)CN2C(=O)[C@H](CCCCN)NC1=O", "note": "({CH2CO}-FPLK[Pro(4,4-F2)][Tic][Phe(4-CONH2)]C-NH2; thioether N-8)", "IC50": 0.013},
      {"smiles": "CC(C)C[C@@H]1NC(=O)[C@@H]2CCCN2C(=O)[C@H](Cc2ccccc2)NC(=O)CSC[C@@H](C(N)=O)NC(=O)[C@H](Cc2ccc(C(N)=O)cc2)NC(=O)[C@@H]2Cc3ccccc3CN2C(=O)[C@@H]2C[C@H](C(F)(F)F)CN2C(=O)[C@H](CCCCN)NC1=O", "note": "({CH2CO}-FPLK[Pro(cis-4-CF3)][Tic][Phe(4-CONH2)]C-NH2; thioether N-8)", "IC50": 1.34},
      {"smiles": "CC(C)C[C@@H]1NC(=O)[C@@H]2CCCN2C(=O)[C@H](Cc2ccccc2)NC(=O)CSC[C@@H](C(N)=O)NC(=O)[C@H](Cc2ccc(C(N)=O)cc2)NC(=O)[C@@H]2Cc3ccccc3CN2C(=O)[C@@H]2C[C@@H](C(F)(F)F)CN2C(=O)[C@H](CCCCN)NC1=O", "note": "({CH2CO}-FPLK[X1][Tic][Phe(4-CONH2)]C-NH2; thioether N-8)", "IC50": 0.263},
      {"smiles": "CN1C(=O)[C@H](Cc2ccc(C(N)=O)cc2)NC(=O)[C@@H]2Cc3ccccc3CN2C(=O)[C@@H]2CCCN2C(=O)[C@H](CCCNC(=N)N)NC(=O)[C@H](Cc2ccc(O)cc2)NC(=O)[C@@H]2CCCN2C(=O)[C@H](Cc2ccccc2)NC(=O)CSC[C@H]1C(N)=O", "note": "({CH2CO}-FPYRP[Tic][Phe(4-CONH2)][NMeC]-NH2; thioether N-8)", "IC50": 8.03},
      {"smiles": "CN1C(=O)[C@H](Cc2ccc(O)cc2)NC(=O)[C@@H]2CCCN2C(=O)[C@H](Cc2ccccc2)NC(=O)CSC[C@@H](C(N)=O)NC(=O)[C@H](Cc2ccc(C(N)=O)cc2)NC(=O)[C@@H]2Cc3ccccc3CN2C(=O)[C@@H]2CCCN2C(=O)[C@@H]1CCCNC(=N)N", "note": "({CH2CO}-FPY[NMeR]P[Tic][Phe(4-CONH2)]C-NH2; thioether N-8)", "IC50": 0.277},
      {"smiles": "CC(C)C[C@@H]1NC(=O)[C@@H]2CC(F)(F)CN2C(=O)[C@H](Cc2ccccc2)NC(=O)CSC[C@@H](C(N)=O)NC(=O)[C@H](Cc2ccc(C(N)=O)cc2)NC(=O)[C@@H]2Cc3ccccc3CN2C(=O)[C@@H]2CCCN2C(=O)[C@H](CCCCN)NC1=O", "note": "({CH2CO}-F[Pro(4,4-F2)]LKP[Tic][Phe(4-CONH2)]C-NH2; thioether N-8)", "IC50": 0.018},
      {"smiles": "CC(C)C[C@@H]1NC(=O)[C@@H]2C[C@H](C(F)(F)F)CN2C(=O)[C@H](Cc2ccccc2)NC(=O)CSC[C@@H](C(N)=O)NC(=O)[C@H](Cc2ccc(C(N)=O)cc2)NC(=O)[C@@H]2Cc3ccccc3CN2C(=O)[C@@H]2CCCN2C(=O)[C@H](CCCCN)NC1=O", "note": "({CH2CO}-F[Pro(cis-4-CF3)]LKP[Tic][Phe(4-CONH2)]C-NH2; thioether N-8)", "IC50": 0.214},
      {"smiles": "CC(C)C[C@@H]1NC(=O)[C@@H]2C[C@@H](c3ccccc3)CN2C(=O)[C@H](Cc2ccccc2)NC(=O)CSC[C@@H](C(N)=O)NC(=O)[C@H](Cc2ccc(C(N)=O)cc2)NC(=O)[C@@H]2Cc3ccccc3CN2C(=O)[C@@H]2CCCN2C(=O)[C@H](CCCCN)NC1=O", "note": "({CH2CO}-F[Pro(trans-4-Ph)]LKP[Tic][Phe(4-CONH2)]C-NH2; thioether N-8)", "IC50": 0.0012},
      {"smiles": "CC(C)C[C@@H]1NC(=O)[C@@H]2C[C@@H](C(F)(F)F)CN2C(=O)[C@H](Cc2ccccc2)NC(=O)CSC[C@@H](C(N)=O)NC(=O)[C@H](Cc2ccc(C(N)=O)cc2)NC(=O)[C@@H]2Cc3ccccc3CN2C(=O)[C@@H]2CCCN2C(=O)[C@H](CCCCN)NC1=O", "note": "({CH2CO}-F[X1]LKP[Tic][Phe(4-CONH2)]C-NH2; thioether N-8)", "IC50": 0.018},
      {"smiles": "CN1C(=O)CSC[C@@H](C(N)=O)NC(=O)[C@H](Cc2ccc(C(N)=O)cc2)NC(=O)[C@@H]2Cc3ccccc3CN2C(=O)[C@@H]2CCCN2C(=O)[C@H](CCCNC(=N)N)NC(=O)[C@H](Cc2ccccc2)NC(=O)[C@@H]2CCCN2C(=O)[C@@H]1Cc1ccccc1", "note": "({CH2CO}-[NMeF]PFRP[Tic][Phe(4-CONH2)]C-NH2; thioether N-8)", "IC50": 0.253},
      {"smiles": "CC(C)C[C@@H]1NC(=O)[C@@H]2CCCN2C(=O)[C@H](Cc2ccccc2)N(C)C(=O)CSC[C@@H](C(N)=O)NC(=O)[C@H](Cc2ccc(C(N)=O)cc2)NC(=O)[C@@H]2Cc3ccccc3CN2C(=O)[C@@H]2CCCN2C(=O)[C@H](CCCNC(=N)N)NC1=O", "note": "({CH2CO}-[NMeF]PLRP[Tic][Phe(4-CONH2)]C-NH2; thioether N-8)", "IC50": 0.096},
      {"smiles": "CC(C)C[C@@H]1NC(=O)[C@@H]2CCCN2C(=O)[C@H](Cc2ccccc2)N(C)C(=O)CSC[C@@H](C(N)=O)NC(=O)[C@H](Cc2ccc(C(N)=O)cc2)NC(=O)[C@@H]2Cc3ccccc3CN2C(=O)[C@@H]2CCCN2C(=O)[C@H](CCCCCN)NC1=O", "note": "({CH2CO}-[NMeF]PL[hLys]P[Tic][Phe(4-CONH2)]C-NH2; thioether N-8)", "IC50": 0.0013},
      {"smiles": "CN1C(=O)CSC[C@@H](C(N)=O)NC(=O)[C@H](Cc2ccc(C(N)=O)cc2)NC(=O)[C@@H]2Cc3ccccc3CN2C(=O)[C@@H]2CCCN2C(=O)[C@H](CCCCN)NC(=O)[C@H](Cc2ccc(O)cc2)NC(=O)[C@@H]2CCCN2C(=O)[C@@H]1Cc1ccccc1", "note": "({CH2CO}-[NMeF]PYKP[Tic][Phe(4-CONH2)]C-NH2; thioether N-8)", "IC50": 0.188},
      {"smiles": "CN1C(=O)CSC[C@@H](C(N)=O)NC(=O)[C@H](Cc2ccc(C(N)=O)cc2)NC(=O)[C@@H]2Cc3ccccc3CN2C(=O)[C@@H]2CCCN2C(=O)[C@H](CCCNC(=N)N)NC(=O)[C@H](Cc2ccc(O)cc2)NC(=O)[C@@H]2CCCN2C(=O)[C@@H]1Cc1ccccc1", "note": "({CH2CO}-[NMeF]PYRP[Tic][Phe(4-CONH2)]C-NH2; thioether N-8)", "IC50": 0.217},
      {"smiles": "CN(C)CCCC[C@@H]1NC(=O)[C@H](Cc2ccc(O)cc2)NC(=O)[C@@H]2CCCN2C(=O)[C@H](Cc2ccccc2)N(C)C(=O)CSC[C@@H](C(N)=O)NC(=O)[C@H](Cc2ccc(C(N)=O)cc2)NC(=O)[C@@H]2Cc3ccccc3CN2C(=O)[C@@H]2CCCN2C1=O", "note": "({CH2CO}-[NMeF]PY[Lys(Me2)]P[Tic][Phe(4-CONH2)]C-NH2; thioether N-8)", "IC50": 1.35},
      {"smiles": "CN1C(=O)CSC[C@@H](C(N)=O)NC(=O)[C@H](Cc2ccc(C(N)=O)cc2)NC(=O)[C@@H]2Cc3ccccc3CN2C(=O)[C@@H]2CCCN2C(=O)[C@H](CCCCN)NC(=O)[C@H](CC(C)(C)C)NC(=O)[C@@H]2CCCN2C(=O)[C@@H]1Cc1ccccc1", "note": "({CH2CO}-[NMeF]P[tBuAla]KP[Tic][Phe(4-CONH2)]C-NH2; thioether N-8)", "IC50": 0.023}
    ]}
  ]
}
